# Reference: US6585988B2, “Reaction product of arginine and p-aminobenzoic acid, cosmetic, and human and animal health compositions thereof” (Epicare Ltd., priority 1998, dated 2003)
# Test system: clinical mastitis
# Experiment: Field trials: intramammary infusion in mastitis
# Format: in vivo, cow
# Settings: treated one time on the previous day
# Description: CDRMREC was infused up the teat duct of all 4 quarters of a cow that had clinical mastitis in the left hindquarter. […] Additionally, because of a differential in the vacuum when milking the cow, infected discharge from the left hindquarter contaminated the left fore quarter which then began to show symptoms of clinical mastitis (flaking in the milk). The left fore quarter had not been infused with erythromycin. […] All signs of swelling were gone. The milk from all quarters was normal and untainted.
# Treatment consisted of six 10 ml intramamery ductal infusions of CDRMREC in the afflicted quarter following each milking.
# A Jersey cow was suffering from mastitis in the right forequarter and had received an antibiotic infusion in that quarter. […] The next day, after the PM milking, she received only one 10 ml infusion of CDRMREC in each of her quarters.
# Her milk appeared normal. Three days later, the swelling was still present and like a flattened golf ball but the milk tested normal.
smiles,measurement,value
CC[C@H]1OC(=O)[C@H](C)[C@@H](O[C@H]2C[C@@](C)(OC)[C@@H](O)[C@H](C)O2)[C@H](C)[C@@H](O[C@@H]2O[C@H](C)C[C@H](N(C)C)[C@H]2O)[C@](C)(O)C[C@@H](C)C(=O)[C@H](C)[C@@H](O)[C@]1(C)O [erythromycin],swelling of afflicted quarter,the swelling still remained
